Laboratory results published in US12723063B2, “GIPR-agonist compounds” (Eli Lilly and Company, priority 2019, dated 2026).
*1 amine or outer side, *2 acyl side, *3 side chain or, on linkers, in order; H or OH if unused. Where a SMILES comes first, the peptide text is derived from it. Side-chain parts run from the residue outwards. [ ]: non-standard residue; d: D form. The star is where a group is joined. C20 diacid = O=C(O)CCCCCCCCCCCCCCCCCCC(=O)*; γGlu = O=C(O)[C@H](CCC(=O)[*:2])N[*:1]; AEEA = NCCOCCOCC(=O)O; Aib = CC(C)(N)C(=O)O

Experiments:
human GIPR = target: T1, human GIPR (Homo sapiens, UniProt P48546); test: [125I]-GIP binding, SPA with WGA beads, 0.1% bacitracin; conditions: geometric mean, read-out: hGIPR Ki
T1 construct: expressed in transfected cells; crude membranes
T1 sequence (P48546 22-466): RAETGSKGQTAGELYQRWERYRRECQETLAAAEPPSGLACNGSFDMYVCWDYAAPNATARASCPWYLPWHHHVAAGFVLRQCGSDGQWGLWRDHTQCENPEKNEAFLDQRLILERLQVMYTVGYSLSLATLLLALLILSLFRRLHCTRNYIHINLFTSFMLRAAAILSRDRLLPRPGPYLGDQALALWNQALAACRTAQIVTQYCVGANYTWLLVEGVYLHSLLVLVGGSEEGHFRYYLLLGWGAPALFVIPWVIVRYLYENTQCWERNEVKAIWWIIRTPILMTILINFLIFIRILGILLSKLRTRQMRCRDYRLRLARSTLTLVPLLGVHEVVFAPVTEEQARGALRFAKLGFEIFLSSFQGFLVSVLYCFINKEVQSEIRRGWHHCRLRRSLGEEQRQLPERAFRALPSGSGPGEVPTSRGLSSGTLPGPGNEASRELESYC
Summary of the method: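 Ki values are geometric means (SEM, n independent days), derived from four-parameter nonlinear regression of IC50. Membranes came from hGIPR-expressing CHO cells.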

[1] = target: T2, human GLP-1 receptor (GLP-1R) (Homo sapiens, UniProt P43220); test: cAMP functional assay (HTRF) in HEK293 cells in presence of 0.1% casein; type: cell-based; conditions: HEK293 cells expressing human GLP-1R, geometric mean, read-out: hGLP1R cAMP Rel EC50 nM (SEM, n)
T2 construct: expressed in transfected cells; host or cells: HEK293
T2 sequence (P43220 24-463): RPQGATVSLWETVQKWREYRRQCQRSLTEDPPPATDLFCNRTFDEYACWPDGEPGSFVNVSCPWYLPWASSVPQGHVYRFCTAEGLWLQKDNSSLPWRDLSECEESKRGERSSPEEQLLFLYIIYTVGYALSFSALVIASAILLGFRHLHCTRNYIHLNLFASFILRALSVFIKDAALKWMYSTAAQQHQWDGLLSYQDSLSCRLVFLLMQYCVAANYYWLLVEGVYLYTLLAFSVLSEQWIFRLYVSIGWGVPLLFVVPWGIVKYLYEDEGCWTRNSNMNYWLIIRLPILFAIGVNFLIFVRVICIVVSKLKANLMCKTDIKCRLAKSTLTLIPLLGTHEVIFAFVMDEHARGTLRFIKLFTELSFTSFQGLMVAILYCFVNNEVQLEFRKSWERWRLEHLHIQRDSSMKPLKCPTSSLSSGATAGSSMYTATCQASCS

| Structure (SMILES) | Ki (human GIPR) [nM] | EC50 [1] [nM] |
| --- | --- | --- |
| CC[C@H](C)[C@H](NC(=O)[C@H](CO)NC(=O)[C@H](Cc1ccc(O)cc1)NC(=O)[C@H](CC(=O)O)NC(=O)[C@H](CO)NC(=O)[C@@H](NC(=O)[C@H](Cc1ccccc1)NC(=O)[C@@H](NC(=O)CNC(=O)[C@H](CCC(=O)O)NC(=O)C(C)(C)NC(=O)[C@@H](N)Cc1ccc(O)cc1)[C@@H](C)O)[C@@H](C)CC)C(=O)N[C@@H](CC(C)C)C(=O)N[C@@H](CC(C)C)C(=O)N[C@@H](CC(=O)O)C(=O)N[C@@H](CCCCN)C(=O)N[C@@H](CCCCNC(=O)COCCOCCNC(=O)COCCOCCNC(=O)CC[C@H](NC(=O)CCCCCCCCCCCCCCCCCCC(=O)O)C(=O)O)C(=O)N[C@@H](C)C(=O)N[C@@H](CCC(N)=O)C(=O)NC(C)(C)C(=O)N[C@@H](CC(=O)O)C(=O)N[C@@H](Cc1ccccc1)C(=O)N[C@H](C(=O)N[C@@H](CC(N)=O)C(=O)N[C@@H](Cc1c[nH]c2ccccc12)C(=O)N[C@@H](CC(C)C)C(=O)N[C@@H](CC(C)C)C(=O)N[C@@H](C)C(=O)N[C@@H](CCC(N)=O)C(=O)NCC(=O)N1CCC[C@H]1C(=O)N[C@@H](CO)C(=O)N[C@@H](CO)C(=O)NCC(=O)N[C@@H](C)C(=O)N1CCC[C@H]1C(=O)N1CCC[C@H]1C(=O)N1CCC[C@H]1C(=O)N[C@@H](CO)C(N)=O)C(C)C [Example 8] (H-Y[Aib]EGTFISDYSILLDKK([AEEA-AEEA-γGlu-C20 diacid])AQ[Aib]DFVNWLLAQGPSSGAPPPS-NH2) | 0.027 | > 5000 |
| CC[C@H](C)[C@H](NC(=O)[C@H](CO)NC(=O)[C@H](Cc1ccc(O)cc1)NC(=O)[C@H](CC(=O)O)NC(=O)[C@H](CO)NC(=O)[C@@H](NC(=O)[C@H](Cc1ccccc1)NC(=O)[C@@H](NC(=O)CNC(=O)[C@H](CCC(=O)O)NC(=O)[C@@H](C)NC(=O)[C@@H](N)Cc1ccc(O)cc1)[C@@H](C)O)[C@@H](C)CC)C(=O)N[C@@H](CC(C)C)C(=O)N[C@@H](CC(C)C)C(=O)N[C@@H](CC(=O)O)C(=O)N[C@@H](CCCCN)C(=O)N[C@@H](CCCCNC(=O)COCCOCCNC(=O)COCCOCCNC(=O)CC[C@H](NC(=O)CCCCCCCCCCCCCCCCCCC(=O)O)C(=O)O)C(=O)N[C@@H](Cc1c[nH]cn1)C(=O)N[C@@H](CCC(N)=O)C(=O)NC(C)(C)C(=O)N[C@@H](CC(=O)O)C(=O)N[C@@H](Cc1ccccc1)C(=O)N[C@H](C(=O)N[C@@H](CC(N)=O)C(=O)N[C@@H](Cc1c[nH]c2ccccc12)C(=O)N[C@@H](CC(C)C)C(=O)N[C@@H](CC(C)C)C(=O)N[C@@H](C)C(=O)N[C@@H](CCC(N)=O)C(=O)NCC(=O)N1CCC[C@H]1C(=O)N[C@@H](CO)C(=O)N[C@@H](CO)C(=O)NCC(=O)N[C@@H](C)C(=O)N1CCC[C@H]1C(=O)N1CCC[C@H]1C(=O)N1CCC[C@H]1C(=O)N[C@@H](CO)C(N)=O)C(C)C [Example 9] (H-Y[dA]EGTFISDYSILLDKK([AEEA-AEEA-γGlu-C20 diacid])HQ[Aib]DFVNWLLAQGPSSGAPPPS-NH2) | 0.11 | > 100 |
| CC[C@H](C)[C@H](NC(=O)[C@H](CO)NC(=O)[C@H](Cc1ccc(O)cc1)NC(=O)[C@H](CC(=O)O)NC(=O)[C@H](CO)NC(=O)[C@@H](NC(=O)[C@H](Cc1ccccc1)NC(=O)[C@@H](NC(=O)CNC(=O)[C@H](CCC(=O)O)NC(=O)[C@@H](C)NC(=O)[C@@H](N)Cc1ccc(O)cc1)[C@@H](C)O)[C@@H](C)CC)C(=O)N[C@@H](CC(C)C)C(=O)N[C@@H](CC(C)C)C(=O)N[C@@H](CC(=O)O)C(=O)N[C@@H](CCCCN)C(=O)N[C@@H](CCCCNC(=O)COCCOCCNC(=O)COCCOCCNC(=O)CC[C@H](NC(=O)CCCCCCCCCCCCCCCCCCC(=O)O)C(=O)O)C(=O)N[C@@H](Cc1c[nH]cn1)C(=O)N[C@@H](CCC(N)=O)C(=O)N[C@@H](CCC(N)=O)C(=O)N[C@@H](CC(=O)O)C(=O)N[C@@H](Cc1ccccc1)C(=O)N[C@H](C(=O)N[C@@H](CC(N)=O)C(=O)N[C@@H](Cc1c[nH]c2ccccc12)C(=O)N[C@@H](CC(C)C)C(=O)N[C@@H](CC(C)C)C(=O)N[C@@H](C)C(=O)NCC(=O)NCC(=O)N1CCC[C@H]1C(=O)N[C@@H](CO)C(=O)N[C@@H](CO)C(=O)NCC(=O)N[C@@H](C)C(=O)N1CCC[C@H]1C(=O)N1CCC[C@H]1C(=O)N1CCC[C@H]1C(=O)N[C@@H](CO)C(N)=O)C(C)C [Example 10] (H-Y[dA]EGTFISDYSILLDKK([AEEA-AEEA-γGlu-C20 diacid])HQQDFVNWLLAGGPSSGAPPPS-NH2) | 0.159 | > 100 |
| CC[C@H](C)[C@H](NC(=O)[C@H](CO)NC(=O)[C@H](Cc1ccc(O)cc1)NC(=O)[C@H](CC(=O)O)NC(=O)[C@H](CO)NC(=O)[C@@H](NC(=O)[C@H](Cc1ccccc1)NC(=O)[C@@H](NC(=O)CNC(=O)[C@H](CCC(=O)O)NC(=O)[C@@H](C)NC(=O)[C@@H](N)Cc1ccc(O)cc1)[C@@H](C)O)[C@@H](C)CC)C(=O)N[C@@H](CC(C)C)C(=O)N[C@@H](CC(C)C)C(=O)N[C@@H](CC(=O)O)C(=O)N[C@@H](CCCCN)C(=O)N[C@@H](CCCCNC(=O)COCCOCCNC(=O)COCCOCCNC(=O)CC[C@H](NC(=O)CCCCCCCCCCCCCCCCCCC(=O)O)C(=O)O)C(=O)N[C@@H](C)C(=O)N[C@@H](CCC(N)=O)C(=O)N[C@@H](CCC(N)=O)C(=O)N[C@@H](CC(=O)O)C(=O)N[C@@H](Cc1ccccc1)C(=O)N[C@H](C(=O)N[C@@H](CC(N)=O)C(=O)N[C@@H](Cc1c[nH]c2ccccc12)C(=O)N[C@@H](CC(C)C)C(=O)N[C@@H](CC(C)C)C(=O)N[C@@H](C)C(=O)N[C@@H](CCC(N)=O)C(=O)NCC(=O)N1CCC[C@H]1C(=O)N[C@@H](CO)C(=O)N[C@@H](CO)C(=O)NCC(=O)N[C@@H](C)C(=O)N1CCC[C@H]1C(=O)N1CCC[C@H]1C(=O)N1CCC[C@H]1C(=O)N[C@@H](CO)C(N)=O)C(C)C [Example 11] (H-Y[dA]EGTFISDYSILLDKK([AEEA-AEEA-γGlu-C20 diacid])AQQDFVNWLLAQGPSSGAPPPS-NH2) | 0.0584 | > 100 |
| CC[C@H](C)[C@H](NC(=O)[C@H](CO)NC(=O)[C@H](Cc1ccc(O)cc1)NC(=O)[C@H](CC(=O)O)NC(=O)[C@H](CO)NC(=O)[C@@H](NC(=O)[C@H](Cc1ccccc1)NC(=O)[C@@H](NC(=O)CNC(=O)[C@H](CCC(=O)O)NC(=O)[C@@H](C)NC(=O)[C@@H](N)Cc1ccc(O)cc1)[C@@H](C)O)[C@@H](C)CC)C(=O)N[C@@H](CC(C)C)C(=O)N[C@@H](CC(C)C)C(=O)N[C@@H](CC(=O)O)C(=O)N[C@@H](CCCCN)C(=O)N[C@@H](CCCCNC(=O)COCCOCCNC(=O)COCCOCCNC(=O)CC[C@H](NC(=O)CCCCCCCCCCCCCCCCCCC(=O)O)C(=O)O)C(=O)N[C@@H](C)C(=O)N[C@@H](CCC(N)=O)C(=O)N[C@@H](CCC(N)=O)C(=O)N[C@@H](CC(=O)O)C(=O)N[C@@H](Cc1ccccc1)C(=O)N[C@H](C(=O)N[C@@H](CC(N)=O)C(=O)N[C@@H](Cc1c[nH]c2ccccc12)C(=O)N[C@@H](CC(C)C)C(=O)N[C@@H](CC(C)C)C(=O)N[C@@H](C)C(=O)NCC(=O)NCC(=O)N1CCC[C@H]1C(=O)N[C@@H](CO)C(=O)N[C@@H](CO)C(=O)NCC(=O)N[C@@H](C)C(=O)N1CCC[C@H]1C(=O)N1CCC[C@H]1C(=O)N1CCC[C@H]1C(=O)N[C@@H](CO)C(N)=O)C(C)C [Example 12] (H-Y[dA]EGTFISDYSILLDKK([AEEA-AEEA-γGlu-C20 diacid])AQQDFVNWLLAGGPSSGAPPPS-NH2) | 0.0876 | > 100 |
| CC[C@H](C)[C@H](NC(=O)[C@H](CO)NC(=O)[C@H](Cc1ccc(O)cc1)NC(=O)[C@H](CC(=O)O)NC(=O)[C@H](CO)NC(=O)[C@@H](NC(=O)[C@H](Cc1ccccc1)NC(=O)[C@@H](NC(=O)CNC(=O)[C@H](CCC(=O)O)NC(=O)[C@@H](C)NC(=O)[C@@H](N)Cc1ccc(O)cc1)[C@@H](C)O)[C@@H](C)CC)C(=O)N[C@@H](CC(C)C)C(=O)N[C@@H](CC(C)C)C(=O)N[C@@H](CC(=O)O)C(=O)N[C@@H](CCCCN)C(=O)N[C@@H](CCCCNC(=O)COCCOCCNC(=O)COCCOCCNC(=O)CC[C@H](NC(=O)CCCCCCCCCCCCCCCCCCC(=O)O)C(=O)O)C(=O)N[C@@H](Cc1c[nH]cn1)C(=O)N[C@@H](CCC(N)=O)C(=O)N[C@@H](CCC(N)=O)C(=O)N[C@@H](CCC(=O)O)C(=O)N[C@@H](Cc1ccccc1)C(=O)N[C@H](C(=O)N[C@@H](CC(N)=O)C(=O)N[C@@H](Cc1c[nH]c2ccccc12)C(=O)N[C@@H](CC(C)C)C(=O)N[C@@H](CC(C)C)C(=O)N[C@@H](C)C(=O)N[C@@H](CCC(N)=O)C(=O)NCC(=O)N1CCC[C@H]1C(=O)N[C@@H](CO)C(=O)N[C@@H](CO)C(=O)NCC(=O)N[C@@H](C)C(=O)N1CCC[C@H]1C(=O)N1CCC[C@H]1C(=O)N1CCC[C@H]1C(=O)N[C@@H](CO)C(N)=O)C(C)C [Example 13] (H-Y[dA]EGTFISDYSILLDKK([AEEA-AEEA-γGlu-C20 diacid])HQQEFVNWLLAQGPSSGAPPPS-NH2) | 0.237 | > 100 |
